From patent US20260337189A1, “Cryptolepine Salt Derivative, Preparation Method, and Use Thereof” (ZHEJIANG XINNONG CHEMICAL CO., LTD., priority 2023, published 2026)

Experiments:
[1] = tested on: tobacco Mosaic virus (TMV); assay: Live treatment effect against tobacco Mosaic virus (TMV); type: in vivo; conditions: 500 mg/L, tobacco Xanthi nc, sprayed after inoculation, virus 10 μg/mL, 3 days; for inhibition at 500 µg/mL: Tobacco mosaic virus, 72 h, read-out: Relative inhibition rate, live treatment effect
Protocol: (§1) Determination of anti-tobacco Mosaic virus (TMV) activity by the following procedure:
(§2) After weighing, cryptolepine salt derivative, ningnanmycin and the original drug of ribavirin were dissolved in DMF to obtain 1×10^5 μg/mL mother solution, and then diluted to the required concentration with 1%. Tween 80 aqueous solution.
(§3) Select the 3-5 leaf stage of tobacco Xanthi nc with uniform growth, use a brush to vaccinate the virus in the whole leaf, the virus concentration is 10 μg/mL, and the leaf was washed with running water after inoculation. After the leaves were dried, the whole plant was sprayed with test sample, repeated 3 times every treatment, and 1%. Tween 80 aqueous solution was set as control. After 3 days, the number of disease spots was recorded and the prevention and control effect was calculated.
(§4) Relative inhibition rate (%)=[(number of dead spots of control group-number of dead spots of test sample group)/number of dead spots of control group]×100%.

[2] = tested on: tobacco Mosaic virus (TMV); assay: Living passivation activity test against tobacco Mosaic virus (TMV); type: in vivo; conditions: 500 mg/L, tobacco Xanthi nc, sample mixed with virus juice 30 min, virus 20 μg/mL, 3 days; for inhibition at 500 µg/mL: Tobacco mosaic virus, read-out: Relative inhibition rate, living passivation activity test
Protocol: as §1, §2
(§5) Select the 3-5 leaf stage of tobacco Xanthi nc with uniform growth, mix the test sample agent with the same volume of virus juice to passivate for 30 min, friction inoculation, virus concentration 20 μg/mL, the leaf was washed with running water after inoculation, repeat 3 times, set 1%. Tween 80 aqueous solution as control. 3 days later, the number of disease spots was calculated.
as §4
(§6) Anti-tobacco Mosaic virus passivation activity test of all compounds was at a treatment dose of 500 μg/mL. The positive control was the commercial anti-plant virus agent viriazole.

[3] = tested on: tobacco Mosaic virus (TMV); assay: Live protection function against tobacco Mosaic virus (TMV); type: in vivo; conditions: for Relative inhibition rate, live protection function: 500 mg/L, tobacco Xanthi nc, sprayed 24 h before inoculation, virus 10 μg/mL, 3 days; for inhibition at 500 µg/mL: Tobacco mosaic virus, read-out: Relative inhibition rate, live protection function
Protocol: as §1, §2
(§7) Select the 3-5 leaf stage of tobacco Xanthi nc with uniform growth, spray the whole plant, repeat each treatment 3 times, and set 1%. Tween80 aqueous solution as control. 24 h later, the leaf surface was coated with emery (500 mesh), the disease venom was dipped with a brush, and the whole leaf surface was gently rubbed twice along the direction of the branch pulse by using the brush, the leaf was supported by palm of hand, the virus concentration was 10 μg/mL, and the leaf was washed by water after inoculation. After 3 days, the number of disease spots was recorded and the prevention and control effect was calculated.
as §4

rice sheath blight = assay: Test of resistance to rice sheath blight (bactericidal activity test); type: in vivo; conditions: for Resistance to rice sheath blight: 400 mg/L, rice seedlings, sprayed 24 h before inoculation, 6 days after inoculation, visual inspection; for bactericidal activity against rice sheath blight: live pot test, Table 5, 400 mg/L
Protocol: Bactericidal activity test, the determination procedure is as follows:
Test of resistance to rice sheath blight: Select uniformly growing rice seedlings and spray them on the leaves at the set concentration, set a water spraying group as blank control, every treatment was repeated twice. After 24 h, the rice seedlings were inoculated with rice sheath blight strains and placed at room temperature (25±4° C.) for normal management after inoculation. The prevention and control effect was investigated by visual inspection 6 days after inoculation.

[4] = tested on: tobacco Mosaic virus (TMV); assay: Anti-tobacco Mosaic virus (TMV) activity, overall comparison of Test Example 1; type: in vivo; conditions: 500 μg/mL; Table 4
Protocol: as §1, §2, §7, §3, §5, §4, §6

Plasmodium falciparum = conditions: cited from earlier work

## Cc1ccc(S(=O)(=O)n2c3ccc(F)cc3c3c2cc2ccccc2[n+]3C)cc1 [Example 4]
[1]
  Relative inhibition rate, live treatment effect: 18.6 ± 1.2%
[2]
  Relative inhibition rate, living passivation activity test: 14.1 ± 1.3%
[3]
  Relative inhibition rate, live protection function: 21.6 ± 3.4%
Rice sheath blight
  Resistance to rice sheath blight: 60 ± 0%
  bactericidal activity against rice sheath blight: more than 50%

## Cc1ccc(S(=O)(=O)n2c3ccc(I)cc3c3c2cc2ccccc2[n+]3C)cc1.[Cl-] [Example 7]
[1]
  inhibition at 500 µg/mL: 43 ± 3.5%
[2]
  inhibition at 500 µg/mL: 47.7 ± 3.1%
[3]
  inhibition at 500 µg/mL: 44.5 ± 0.4%
Rice sheath blight
  Resistance to rice sheath blight: 40 ± 0%
[4]
  TMV activity compared with ribavirin: better TMV activity than the ribavirin

## CCCCCNc1c2ccccc2[n+](C)c2c1[nH]c1ccccc12 [Example 24]
[1]
  inhibition at 500 µg/mL: 30.3 ± 0.8%
[2]
  inhibition at 500 µg/mL: 35.2 ± 1%
[3]
  inhibition at 500 µg/mL: 36.9 ± 3.7%
Rice sheath blight
  Resistance to rice sheath blight: 30 ± 0%

## CCCCCCCCCCCCNc1c2ccccc2[n+](C)c2c1[nH]c1ccccc12 [Example 25]
[1]
  inhibition at 500 µg/mL: 22.1 ± 1.1%
[2]
  inhibition at 500 µg/mL: 35.1 ± 0.1%
[3]
  inhibition at 500 µg/mL: 27.3 ± 3%
Rice sheath blight
  Resistance to rice sheath blight: 20 ± 0%

## C[n+]1c2ccccc2c(NC2CCCC2)c2[nH]c3ccccc3c21 [Example 29]
[1]
  Relative inhibition rate, live treatment effect: 36.5 ± 2.3%
[2]
  Relative inhibition rate, living passivation activity test: 30.5 ± 0.9%
[3]
  Relative inhibition rate, live protection function: 38.6 ± 4.6%
Rice sheath blight
  Resistance to rice sheath blight: 30 ± 0%

## C[n+]1c2ccccc2c(NCCCN)c2[nH]c3ccccc3c21.[I-] [Example 33]
[1]
  inhibition at 500 µg/mL: 51.7 ± 3.6%
[2]
  inhibition at 500 µg/mL: 49.8 ± 3.1%
[3]
  inhibition at 500 µg/mL: 57.9 ± 4.6%
Rice sheath blight
  Resistance to rice sheath blight: 40 ± 0%
[4]
  TMV activity compared with ribavirin: better TMV activity than the ribavirin
  anti-TMV activity compared with commercial Ningnanmycin: comparable to that of commercial Ningnanmycin

## C[n+]1c2ccccc2c(NCC2CCNCC2)c2[nH]c3ccccc3c21.[I-] [Example 42]
[1]
  inhibition at 500 µg/mL: 30.2 ± 2.1%
[2]
  inhibition at 500 µg/mL: 25.1 ± 0.2%
[3]
  inhibition at 500 µg/mL: 28.1 ± 3%
Rice sheath blight
  Resistance to rice sheath blight: 25 ± 5%

## C[n+]1c2ccccc2c(NCCCN2CCCCC2)c2[nH]c3ccccc3c21 [Example 47]
[1]
  Relative inhibition rate, live treatment effect: 33.3 ± 2.0%
[2]
  Relative inhibition rate, living passivation activity test: 35.7 ± 0.3%
[3]
  Relative inhibition rate, live protection function: 36.4 ± 2.8%
Rice sheath blight
  Resistance to rice sheath blight: 45 ± 5%
  bactericidal activity against rice sheath blight: more than 50%

## Cn1c2c3ccccc3nc-2cc2ccccc21 [cryptolepine]
Plasmodium falciparum
  activity against Plasmodium falciparum compared with Chloroquine: comparable activity against Plasmodium falciparum to Chloroquine
